Converted amounts (≈) assume the structure as drawn. Where two headings read alike, the source gives them in different places.
Assays:
Assay in all cases: Serum MIC, broth micro-dilution
Type in all cases: cell-based
[1] = system: Klebsiella pneumoniae ATCC 700603; conditions: Klebsiella pneumoniae
Outline: (§1)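 Serum-shifted MIC: medium is a 1:1 v/v mix of cation-adjusted MH II broth and mouse serum. 10-point 2-fold dilution series, top 64, 4, 0.5 or 0.13 μg/mL depending on protocol. Inoculum OD600 0.0005 final; 35° C, 22 h.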

[2] = system: Acinetobacter baumannii ATCC 17978; conditions: Acinetobacter baumannii
Outline: as §1

[3] = system: Escherichia coli strain ATCC 25922; conditions: Escherichia coli, read-out: E. coli 25922 Serum MIC
Outline: as §1

[4] = system: Pseudomonas aeruginosa PA01; conditions: Pseudomonas aeruginosa, read-out: P. aeruginosa 01 Serum MIC
Outline: as §1

[5] = ATCC700603, 50% v/v mouse serum in Mueller Hinton II cation adjusted Broth, 35° C., 22 hours, Table 4, read-out: K pneumoniae 700603 Serum MIC
[6] = ATCC17978, 50% v/v mouse serum in Mueller Hinton II cation adjusted Broth, 35° C., 22 hours, Table 4, read-out: A. baumanii 17978 Serum MIC
[7] = ATCC17978, 50% v/v mouse serum in Mueller Hinton II cation adjusted Broth, 35° C., 22 hours, Table 5, read-out: Acinetobacter baumanii 17978 Serum MIC
[8] = ATCC25922, 50% v/v mouse serum in Mueller Hinton II cation adjusted Broth, 35° C., 22 hours, Table 4
[9] = PA01, 50% v/v mouse serum in Mueller Hinton II cation adjusted Broth, 35° C., 22 hours, Table 4
[10] = ATCC700603, 50% v/v mouse serum, compounds of Table 1, Table 7, read-out: K. pneumoniae 700603 Serum MIC
[11] = ATCC17978, 50% v/v mouse serum, compounds of Table 1, Table 7, read-out: A. baumanii 17978 Serum MIC
[12] = ATCC25922, 50% v/v mouse serum, compounds of Table 1, Table 7
[13] = PA01, 50% v/v mouse serum, compounds of Table 1, Table 7

Compound | MIC [1, 5] [µM] | MIC [2, 6] [µM] | MIC [2, 7] [µM] | MIC [3, 8] [µM] | MIC [4, 9] [µM] | also measured
C[C@@H]1NC(=O)[C@@H](N(C)C(=O)[C@H](CNS(N)(=O)=O)NC(=O)c2ncc(-c3ccc(C(C)(C)C)cc3)nc2N)c2cc(OC[C@H](O)CN)c(O)c(c2)-c2cc(ccc2OC[C@H](O)CN)C[C@@H](C(=O)O)NC1=O [Example 11, (8S,11S,14S)-18-hydroxy-11-methyl-14-[methyl-[(2S)-2-[[3-amino-5-(4-tert-butylphenyl)pyrazine-2-carbonyl]amino]-3-(sulfamoylamino)-propanoyl]amino]-10,13-dioxo-3,17-bis[(2R)-3-amino-2-hydroxy-propoxy]-9,12-diazatricyclo-[13.3.1.12,6]icosa-1(18),2(20),3,5,15(19), 16-hexaene-8-carboxylic acid] |  |  |  |  |  | MIC ([1]; ATCC700603, 22 h, read-out: K pneumoniae 700603 Serum MIC): 4 µM (≈ 3.98 µg/mL); MIC ([2]; ATCC17978, 22 h, read-out: A. baumanii 17978 Serum MIC): 16 µM (≈ 15.9 µg/mL); MIC ([2]; ATCC17978, 22 h, read-out: Acinetobacter baumanii 17978 Serum MIC): 16 µM (≈ 15.9 µg/mL); MIC ([3]; ATCC25922, 22 h): 4 µM (≈ 3.98 µg/mL); MIC ([4]; PA01, 22 h): 64 µM (≈ 63.6 µg/mL)
Cc1nc(-c2ccc(C3CCC3)cc2)nc(N)c1C(=O)N[C@@H](CNS(N)(=O)=O)C(=O)N(C)[C@@H]1C(=O)N[C@@H](C)C(=O)N[C@H](C(=O)O)Cc2ccc(OC[C@H](O)CN)c(c2)-c2cc1cc(OC[C@H](O)CN)c2O [Example 41, (8S,11S,14S)-14-[[(2S)-2-[[4-amino-2-(4-cyclobutylphenyl)-6-methyl-pyrimidine-5-carbonyl]amino]-3-(sulfamoylamino)-propanoyl]-methyl-amino]-3,17-bis[(2R)-3-amino-2-hydroxy-propoxy]-18-hydroxy-11-methyl-10,13-dioxo-9,12-diazatri-cyclo[13.3.1.12,6]icosa-1(18),2(20),3,5,15(19), 16-hexaene-8-carboxylic acid] | 1 (≈ 1.01 µg/mL) | 16 (≈ 16.1 µg/mL) | 16 (≈ 16.1 µg/mL) | 1 (≈ 1.01 µg/mL) | 16 (≈ 16.1 µg/mL) | 
Cc1nc(-c2ccc(C(C)(C)C)cc2)nc(C)c1C(=O)N[C@@H](CCN)C(=O)N(C)[C@@H]1C(=O)N[C@@H](C)C(=O)N[C@H](C(=O)O)Cc2cc(OCCN)c(O)c(c2)-c2cc1ccc2O (racemic) [Example 561-15] |  |  |  |  |  | MIC [1, 10]: 4 µM (≈ 3.36 µg/mL); MIC [2, 11]: 64 µM (≈ 53.7 µg/mL); MIC [3, 12]: 2 µM (≈ 1.68 µg/mL); MIC [4, 13]: 64 µM (≈ 53.7 µg/mL)
C[C@@H]1NC(=O)[C@@H](N(C)C(=O)[C@H](CCN)NC(=O)c2cnn(-c3ccc(C4(C)CC4)cc3)c(=O)c2)c2cc(OC[C@H](O)CN)c(O)c(c2)-c2cc(ccc2OC[C@H](O)CN)C[C@@H](C(=O)O)NC1=O [Example 29, (8S,11S,14S)-18-hydroxy-11-methyl-14-[methyl-[(2S)-4-amino-2-[[1-[4-(1-methylcyclopropyl)-phenyl]-6-oxo-pyridazine-4-carbonyl]amino]-butanoyl]amino]-10,13-dioxo-3,17-bis[(2R)-3-amino-2-hydroxy-propoxy]-9,12-diazatricyclo-[13.3.1.12,6]icosa-1(18),2(20),3,5,15(19), 16-hexaene-8-carboxylic acid] | 1.8 (≈ 1.67 µg/mL) | 32 (≈ 29.7 µg/mL) | 32 (≈ 29.7 µg/mL) | 2.7 (≈ 2.51 µg/mL) | 64 (≈ 59.4 µg/mL) | 
Cc1nc(-c2ccc(C(C)(C)C)cc2)nc(C)c1C(=O)N[C@@H](CCN)C(=O)N(C)[C@@H]1C(=O)N[C@@H](C)C(=O)N[C@H](C(=O)O)Cc2ccc(OCCN)c(c2)-c2cc1ccc2OCCN (racemic) [Example 645] |  |  |  |  |  | MIC [1, 10]: 0.55 µM (≈ 0.476 µg/mL); MIC [2, 11]: 67 µM (≈ 58 µg/mL); MIC [3, 12]: 0.53 µM (≈ 0.459 µg/mL); MIC [4, 13]: 67 µM (≈ 58 µg/mL)
Cc1nc(-c2ccc(C(C)(C)C)cc2)nc(C)c1C(=O)N[C@@H](CCN)C(=O)N(C)[C@@H]1C(=O)N[C@@H](C)C(=O)N[C@H](C(=O)O)Cc2ccc(OCCN)c(c2)-c2cc1cc1[nH]c(=O)oc21 (racemic) [Example 649] |  |  |  |  |  | MIC [1, 10]: 2 µM (≈ 1.73 µg/mL); MIC [2, 11]: 64 µM (≈ 55.3 µg/mL); MIC [3, 12]: 1 µM (≈ 0.864 µg/mL); MIC [4, 13]: 64 µM (≈ 55.3 µg/mL)
CCC(C)(C)c1ccc(-c2nc(C)c(C(=O)N[C@@H](CNS(N)(=O)=O)C(=O)N(C)[C@@H]3C(=O)N[C@@H](C)C(=O)N[C@H](C(=O)O)Cc4ccc(OC[C@H](O)CN)c(c4)-c4cc3cc(OC[C@H](O)CN)c4O)c(N)n2)cc1 [Example 45, (8S,11S,14S)-14-[[(2S)-2-[[4-amino-2-[4-(1,1-dimethyl-propyl)phenyl]-6-methyl-pyrimidine-5-carbonyl]amino]-3-(sulfamoylamino)-propanoyl]-methyl-amino]-3,17-bis[(2R)-3-amino-2-hydroxy-propoxy]-18-hydroxy-11-methyl-10,13-dioxo-9,12-diazatri-cyclo[13.3.1.12,6]icosa-1(18),2(20),3,5,15(19), 16-hexaene-8-carboxylic acid] | 0.5 (≈ 0.511 µg/mL) | 8 (≈ 8.18 µg/mL) | 8 (≈ 8.18 µg/mL) | 0.5 (≈ 0.511 µg/mL) | 3 (≈ 3.07 µg/mL) | 

The next lines start with results.

MIC [1, 5] [µM] | MIC [2, 6] [µM] | MIC [2, 7] [µM] | MIC [3, 8] [µM] | MIC [4, 9] [µM] | Compound | also measured
1 (≈ 1.04 µg/mL) | 16 (≈ 16.6 µg/mL) | 16 (≈ 16.6 µg/mL) | 0.75 (≈ 0.779 µg/mL) | 3 (≈ 3.11 µg/mL) | Cc1cc(C(C)(C)C)cc(O)c1-c1nc(C)c(C(=O)N[C@@H](CNS(N)(=O)=O)C(=O)N(C)[C@@H]2C(=O)N[C@@H](C)C(=O)N[C@H](C(=O)O)Cc3ccc(OC[C@H](O)CN)c(c3)-c3cc2cc(OC[C@H](O)CN)c3O)c(N)n1 [Example 48, (8S,11S,14S)-14-[[(2S)-2-[[4-amino-2-(4-tert-butyl-2-hydroxy-6-methyl-phenyl)-6-methyl-pyrimidine-5-carbonyl]amino]-3-(sulfamoylamino)-propanoyl]-methyl-amino]-3,17-bis[(2R)-3-amino-2-hydroxy-propoxy]-18-hydroxy-11-methyl-10,13-dioxo-9,12-diazatri-cyclo[13.3.1.12,6]icosa-1(18),2(20),3,5,15(19), 16-hexaene-8-carboxylic acid] | 
1 (≈ 1.05 µg/mL) | 16 (≈ 16.8 µg/mL) | 16 (≈ 16.8 µg/mL) | 0.5 (≈ 0.526 µg/mL) | 8 (≈ 8.42 µg/mL) | Cc1nc(-c2c(O)cc3c(c2O)CCC3(C)C)nc(N)c1C(=O)N[C@@H](CNS(N)(=O)=O)C(=O)N(C)[C@@H]1C(=O)N[C@@H](C)C(=O)N[C@H](C(=O)O)Cc2ccc(OC[C@H](O)CN)c(c2)-c2cc1cc(OC[C@H](O)CN)c2O [Example 52, (8S,11S,14S)-18-hydroxy-11-methyl-14-[methyl-[(2S)-2-[[4-amino-2-(4,6-dihydroxy-1,1-dimethyl-indan-5-yl)-6-methyl-pyrimidine-5-carbonyl]amino]-3-(sulfamoylamino)-propanoyl]amino]-10,13-dioxo-3,17-bis[(2R)-3-amino-2-hydroxy-propoxy]-9,12-diazatricyclo-[13.3.1.12,6]icosa-1(18),2(20),3,5,15(19), 16-hexaene-8-carboxylic acid] | 
1 (≈ 1.03 µg/mL) | 16 (≈ 16.5 µg/mL) | 16 (≈ 16.5 µg/mL) | 1.5 (≈ 1.55 µg/mL) | 6 (≈ 6.19 µg/mL) | Cc1c(C#N)c(-c2ccc(C(C)(C)C)cc2)nc(N)c1C(=O)N[C@@H](CNS(N)(=O)=O)C(=O)N(C)[C@@H]1C(=O)N[C@@H](C)C(=O)N[C@H](C(=O)O)Cc2ccc(OC[C@H](O)CN)c(c2)-c2cc1cc(OC[C@H](O)CN)c2O [Example 68, (8S,11S,14S)-14-[[(2S)-2-[[2-amino-6-(4-tert-butylphenyl)-5-cyano-4-methyl-pyridine-3-carbonyl]-amino]-3-(sulfamoyl-amino)propanoyl]-methyl-amino]-3,17-bis[(2R)-3-amino-2-hydroxy-propoxy]-18-hydroxy-11-methyl-10,13-dioxo-9,12-diazatricyclo-[13.3.1.12,6]icosa-1(19),2(20),3,5,15,17-hexaene-8-carboxylic acid] | 
0.5 (≈ 0.514 µg/mL) | 16 (≈ 16.4 µg/mL) | 16 (≈ 16.4 µg/mL) | 0.75 (≈ 0.771 µg/mL) | 8 (≈ 8.22 µg/mL) | C[C@@H]1NC(=O)[C@@H](N(C)C(=O)[C@H](CNS(N)(=O)=O)NC(=O)c2c(Cl)cc(-c3ccc(C(C)(C)C)cc3)nc2N)c2cc(OC[C@H](O)CN)c(O)c(c2)-c2cc(ccc2OC[C@H](O)CN)C[C@@H](C(=O)O)NC1=O [Example 40, (8S,11S,14S)-14-[[(2S)-2-[[2-amino-6-(4-tert-butylphenyl)-4-chloro-pyridine-3-carbonyl]amino]-3-(sulfamoylamino)-propanoyl]-methyl-amino]-3,17-bis[(2R)-3-amino-2-hydroxy-propoxy]-18-hydroxy-11-methyl-10,13-dioxo-9,12-diazatri-cyclo[13.3.1.12,6]icosa-1(18),2(20),3,5,15(19), 16-hexaene-8-carboxylic acid] | 

Reference: patent US11208387B2, “Macrocyclic broad spectrum antibiotics” (Genentech, Inc., priority 2019, dated 2021)
